Measured values from patent US8377974B2 (Millennium Pharmaceuticals, Inc., priority 2004, dated 2013).

Molecular target: T1, human plasma protein factor Xa (Homo sapiens, UniProt P00742)
T1 construct: measure proteolytic activity of the enzyme (factor Xa); purchased Haematologic Technologies (Essex Junction, Vt.); host or cells: human plasma
Experiment: Factor Xa IC50 determination: cleavage of paranitroanilide substrate S-2765 in 96-well plates
Type: biochemical
Details: fXa 1 nM, S-2765 100 μM, Tris buffered saline pH 7.4, room temperature
How it was run: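 Initial rates of S-2765 (100 μM final) cleavage, read at 405 nm for 2 min, fitted with a four-parameter equation to give IC50. Enzyme: 1 nM human plasma fXa, 5 min room-temperature preincubation with inhibitor (0.01 nM–10 μM) in 20 mM Tris, 150 mM NaCl, 5 mM CaCl2, 0.1% BSA, 5% DMSO, pH 7.4; duplicates.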

T1 sequence (P00742 235-488 limits assumed): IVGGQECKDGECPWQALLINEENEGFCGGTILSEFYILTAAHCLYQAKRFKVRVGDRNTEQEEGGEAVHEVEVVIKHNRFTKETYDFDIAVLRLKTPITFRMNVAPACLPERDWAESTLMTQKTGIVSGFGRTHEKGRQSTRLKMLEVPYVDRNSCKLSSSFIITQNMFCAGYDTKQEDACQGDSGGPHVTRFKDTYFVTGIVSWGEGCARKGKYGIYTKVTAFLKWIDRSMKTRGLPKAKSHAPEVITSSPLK
T1 sequence (P00742 41-179 partner limits assumed): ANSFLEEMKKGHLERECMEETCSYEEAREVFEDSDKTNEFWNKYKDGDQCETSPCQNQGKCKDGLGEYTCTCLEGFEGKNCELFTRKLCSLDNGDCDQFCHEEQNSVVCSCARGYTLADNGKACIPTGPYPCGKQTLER

Structure (SMILES): N=C(c1ccc(C2=NOC(CNC(=O)c3ccc(Cl)s3)C2)c(N2CCOCC2)c1)N1CCCC1 (centres unmarked) [Example 84, 5-Chloro-thiophene-2-carboxylic acid {3-[4-(imino-pyrrolidin-1-yl-methyl)-2-morpholin-4-yl-phenyl]-4,5-dihydro-isoxazol-5-ylmethyl}-amide]
- IC50: 0.1 to 0.5 µM

Structure (SMILES): COc1ccc(CN2CCCC2)c(-c2ccc(-c3cc(CNC(=O)c4ccc(Cl)s4)on3)cc2)c1 [Example 216, 5-Chloro-thiophene-2-carboxylic acid [3-(5′-methoxy-2′-pyrrolidin-1-ylmethyl-biphenyl-4-yl)-isoxazol-5-ylmethyl]-amide]
- IC50: ≤ 0.1 µM

Structure (SMILES): CN(Cc1ccco1)C(=N)c1ccc(C2=NOC(C)(CNC(=O)c3ccc(Cl)s3)C2)cc1 (centres unmarked) [Example 67, 5-Chloro-thiophene-2-carboxylic acid {3-[4-(N-furan-2-ylmethyl-N-methyl-carbamimidoyl)-phenyl]-5-methyl-4,5-dihydro-isoxazol-5-ylmethyl}-amide]
- IC50: ≤ 0.1 µM

Structure (SMILES): CN(C)CCN(C)C(=N)c1ccc(C2=NOC(CNC(=O)c3ccc(Cl)s3)C2)cc1 (centres unmarked) [Example 16, 5-Chloro-thiophene-2-carboxylic acid (3-{4-[N-(2-dimethylamino-ethyl)-N-methyl-carbamimidoyl]-phenyl}-4,5-dihydro-isoxazol-5-ylmethyl)-amide]
- IC50: ≤ 0.1 µM

Structure (SMILES): CN1CCN=C1c1ccc(-n2cnc(CNC(=O)c3ccc(Cl)s3)c2)cc1 [Example 365, 5-Chloro-N-((1-(4-(1-methyl-4,5-dihydro-1H-imidazol-2-yl)phenyl)-1H-imidazol-4-yl)methyl)thiophene-2-carboxamide]
- IC50: ≤ 0.1 µM

Structure (SMILES): N=C(c1ccc(-n2cc(CNC(=O)c3ccc(Cl)s3)nn2)cc1)N1CCCC1 [Example 318, 5-Chloro-N-((1-(4-(imino(pyrrolidin-1-yl)methyl)phenyl)-1H-1,2,3-triazol-4-yl)methyl)thiophene-2-carboxamide]
- IC50: ≤ 0.1 µM

Structure (SMILES): CN(C)CCN(C)c1ccc(C2=NOC(CNC(=O)c3ccc(Cl)s3)C2)cc1 (centres unmarked) [Example 238, 5-Chloro-thiophene-2-carboxylic acid (3-{4-[(2-dimethylamino-ethyl)-methyl-amino]-phenyl}-4,5-dihydro-isoxazol-5-ylmethyl)-amide]
- IC50: 0.1 to 0.5 µM

Structure (SMILES): O=C(NCc1cc(-c2ccc(-n3ccccc3=O)nc2)no1)c1ccc(Cl)s1 [Example 310, 5-Chloro-N-((3-(6-(2-oxopyridin-1(2H)-yl)pyridin-3-yl)isoxazol-5-yl)methyl)thiophene-2-carboxamide]
- IC50: ≤ 0.1 µM

Structure (SMILES): O=C(NCC1CC(c2ccc(Nc3ccncc3)cc2F)=NO1)c1ccc(Cl)s1 (centres unmarked) [Example 247, 5-Chloro-thiophene-2-carboxylic acid {3-[2-fluoro-4-(pyridin-4-ylamino)-phenyl]-4,5-dihydro-isoxazol-5-ylmethyl}-amide]
- IC50: ≤ 0.1 µM

Structure (SMILES): N=C(c1ccccc1)N1CCC(C2=NOC(CNC(=O)c3ccc(Cl)s3)C2)CC1 (centres unmarked) [Example 174, 5-Chloro-thiophene-2-carboxylic acid {3-[1-(imino-phenyl-methyl)-piperidin-4-yl]-4,5-dihydro-isoxazol-5-ylmethyl}-amide]
- IC50: ≥ 0.5 µM

Structure (SMILES): N=C(c1ccc(C2=NOC(CNC(=O)c3ccc(Cl)s3)C2)c(N2CCCCCC2)c1)N1CCCCC1 (centres unmarked) [Example 93, 5-Chloro-thiophene-2-carboxylic acid {3-[2-azepan-1-yl-4-(imino-piperidin-1-yl-methyl)-phenyl]-4,5-dihydro-isoxazol-5-ylmethyl}-amide]
- IC50: ≤ 0.1 µM

Structure (SMILES): O=C(NCc1cn(-c2ccc(-n3ccccc3=O)cn2)nn1)c1ccc(Cl)s1 [Example 309, 5-Chloro-N-((1-(5-(2-oxopyridin-1(2H)-yl)pyridin-2-yl)-1H-1,2,3-triazol-4-yl)methyl)thiophene-2-carboxamide]
- IC50: ≤ 0.1 µM

Structure (SMILES): COc1cc(C(=N)N(C)C)ccc1C1=NOC(CNC(=O)c2ccc(Cl)s2)C1 (centres unmarked) [Example 102, 5-Chloro-thiophene-2-carboxylic acid {3-[4-(N,N-dimethyl-carbamimidoyl)-2-methoxy-phenyl]-4,5-dihydro-isoxazol-5-ylmethyl}-amide]
- IC50: ≤ 0.1 µM

Structure (SMILES): N=C(c1ccc(-n2cc(CNC(=O)c3ccc(Cl)s3)nn2)c(F)c1)N1CCCCC1 [Example 323, 5-Chloro-N-((1-(2-fluoro-4-(imino(piperidin-1-yl)methyl)phenyl)-1H-1,2,3-triazol-4-yl)methyl)thiophene-2-carboxamide]
- IC50: ≤ 0.1 µM

Structure (SMILES): CN1CCN=C1c1ccc(-c2ccc(F)c(CNC(=O)c3ccc(Cl)s3)c2)cc1 [Example 375, 5-Chloro-N-((5-(4-(1-methyl-4,5-dihydro-1H-imidazol-2-yl)phenyl)-2-fluorophenyl)methyl)thiophene-2-carboxamide]
- IC50: ≤ 0.1 µM

Structure (SMILES): O=C(NCC1CC(c2ccc(C(=O)N3CCC3)cc2)=NO1)c1ccc(Cl)s1 (centres unmarked) [Example 163, 5-Chloro-thiophene-2-carboxylic acid {3-[4-(azetidine-1-carbonyl)-phenyl]-4,5-dihydro-isoxazol-5-ylmethyl}-amide]
- IC50: ≤ 0.1 µM

Structure (SMILES): CN(Cc1cc(-c2ccc(C(=N)N3CCCCC3)cc2)no1)C(=O)c1ccc(Cl)s1 [Example 38, 5-Chloro-thiophene-2-carboxylic acid {3-[4-(imino-piperidin-1-yl-methyl)-phenyl]-isoxazol-5-ylmethyl}-methyl-amide]
- IC50: ≥ 0.5 µM

Structure (SMILES): CC(C)Oc1cc(C(=N)N2CCCC2)ccc1C1=NOC(CNC(=O)c2ccc(Cl)s2)C1 (centres unmarked) [Example 111, 5-Chloro-thiophene-2-carboxylic acid {3-[4-(imino-pyrrolidin-1-yl-methyl)-2-isopropoxy-phenyl]-4,5-dihydro-isoxazol-5-ylmethyl}-amide]
- IC50: ≤ 0.1 µM

Structure (SMILES): N=C(c1ccc(C2=NOC(CNC(=O)c3ccc(Cl)s3)C2)cc1)N1CCCC1 (centres unmarked) [Example 10, 5-Chloro-thiophene-2-carboxylic acid {3-[4-(imino-pyrrolidin-1-yl-methyl)-phenyl]-4,5-dihydro-isoxazol-5-ylmethyl}-amide]
- IC50: ≤ 0.1 µM

Structure (SMILES): Nc1ccc(-c2cc(CNC(=O)c3ccc(Cl)s3)on2)cc1 [Example 161, 5-Chloro-thiophene-2-carboxylic acid [3-(4-amino-phenyl)-isoxazol-5-ylmethyl]-amide]
- IC50: ≤ 0.1 µM

Structure (SMILES): CN(C)Cc1ccccc1-c1ccc(C2=NOC(CNC(=O)c3ccc(Cl)s3)C2)cc1 (centres unmarked) [Example 194, 5-Chloro-thiophene-2-carboxylic acid [3-(2′-dimethylaminomethyl-biphenyl-4-yl)-4,5-dihydro-isoxazol-5-ylmethyl]-amide]
- IC50: ≤ 0.1 µM

Structure (SMILES): CCOc1cc(C(=N)N(C)C)ccc1-c1cc(CNC(=O)c2ccc(Cl)s2)on1 [Example 122, 5-Chloro-thiophene-2-carboxylic acid {3-[4-(N,N-dimethyl-carbamimidoyl)-2-ethoxy-phenyl]-isoxazol-5-ylmethyl}-amide]
- IC50: ≤ 0.1 µM

Structure (SMILES): N=C(c1ccc(-c2cc(CNC(=O)c3ccc(Cl)s3)on2)c(N2CCOCC2)c1)N1CCCC1 [Example 100, 5-Chloro-thiophene-2-carboxylic acid {3-[4-(imino-pyrrolidin-1-yl-methyl)-2-morpholin-4-yl-phenyl]-isoxazol-5-ylmethyl}-amide]
- IC50: ≤ 0.1 µM

Structure (SMILES): CN(C)CCN(C)C(=N)c1ccc(C2=NOC(C)(CNC(=O)c3ccc(Cl)s3)C2)cc1 (centres unmarked) [Example 65, 5-Chloro-thiophene-2-carboxylic acid (3-{4-[N-(2-dimethylamino-ethyl)-N-methyl-carbamimidoyl]-phenyl}-5-methyl-4,5-dihydro-isoxazol-5-ylmethyl)-amide]
- IC50: ≤ 0.1 µM

Structure (SMILES): O=C(NCC1CC(c2ccc(C(=O)N3CCCC3)cc2)=NO1)c1ccc(Cl)s1 (centres unmarked) [Example 164, 5-Chloro-thiophene-2-carboxylic acid {3-[4-(pyrrolidine-1-carbonyl)-phenyl]-4,5-dihydro-isoxazol-5-ylmethyl}-amide]
- IC50: ≤ 0.1 µM

Structure (SMILES): CCOC(=O)C1CCN(C(=N)c2ccc(C3=NOC(C)(CNC(=O)c4ccc(Cl)s4)C3)cc2)CC1 (centres unmarked) [Example 61, 1-{[4-(5-{[(5-Chloro-thiophene-2-carbonyl)-amino]-methyl}-5-methyl-4,5-dihydro-isoxazol-3-yl)-phenyl]-imino-methyl}-piperidine-4-carboxylic acid ethyl ester]
- IC50: ≤ 0.1 µM

Structure (SMILES): CCOc1cc(C(=N)N2CCCCC2)ccc1-c1cc(CNC(=O)c2ccc(Cl)s2)on1 [Example 125, 5-Chloro-thiophene-2-carboxylic acid {3-[2-ethoxy-4-(imino-piperidin-1-yl-methyl)-phenyl]-isoxazol-5-ylmethyl}-amide]
- IC50: ≤ 0.1 µM

Structure (SMILES): CN1CCC(Nc2ccc(-c3cc(CNC(=O)c4ccc(Cl)s4)on3)cc2)CC1 [Example 259, 5-Chloro-thiophene-2-carboxylic acid {3-[4-(1-methyl-piperidin-4-ylamino)-phenyl]-isoxazol-5-ylmethyl}-amide]
- IC50: ≥ 0.5 µM

Structure (SMILES): O=C(NCc1cn(-c2ccc(-n3cc(Cl)ccc3=O)cc2)nn1)c1ccc(Cl)s1 [Example 299, 5-Chloro-N-((1-(4-(5-chloro-2-oxopyridin-1(2H)-yl)phenyl)-1H-1,2,3-triazol-4-yl)methyl)thiophene-2-carboxamide]
- IC50: ≤ 0.1 µM

Structure (SMILES): CN(C)CCN(C)C(=N)c1ccc(-c2cc(CNC(=O)c3ccc(Cl)s3)on2)cc1 [Example 30, 5-Chloro-thiophene-2-carboxylic acid (3-{4-[N-(2-dimethylamino-ethyl)-N-methyl-carbamimidoyl]-phenyl}-isoxazol-5-ylmethyl)-amide]
- IC50: ≤ 0.1 µM

Structure (SMILES): CC(C)Oc1cc(C(=N)N(C)C)ccc1-c1cc(CNC(=O)c2ccc(Cl)s2)on1 [Example 126, 5-Chloro-thiophene-2-carboxylic acid {3-[4-(N,N-dimethyl-carbamimidoyl)-2-isopropoxy-phenyl]-isoxazol-5-ylmethyl}-amide]
- IC50: ≤ 0.1 µM

Structure (SMILES): CC(C)Oc1cc(C2=NCCN2C)ccc1-c1cc(CNC(=O)c2ccc(Cl)s2)on1 [Example 127, 5-Chloro-thiophene-2-carboxylic acid {3-[2-isopropoxy-4-(1-methyl-4,5-dihydro-1H-imidazol-2-yl)-phenyl]-isoxazol-5-ylmethyl}-amide]
- IC50: ≤ 0.1 µM
